In the NIST ThermoML archive (doi:10.1016/j.jct.2012.09.009):
± gives the expanded uncertainty stated by the source.

Settings: 101.33 kPa, Liquid; for speed of sound: Sing-around technique in a fixed-path interferometer; for mass density: vibrating tube

Cc1ccccc1 [toluene]
Settings | speed of sound [m/s]
278.15 K | 1394.1 ± 2.2
283.15 K | 1371.5 ± 2.2
288.15 K | 1349.1 ± 2.2
293.15 K | 1326.9 ± 2.2
298.15 K | 1305.1 ± 2.1
303.15 K | 1283.6 ± 2.2
308.15 K | 1262.2 ± 2.2
313.15 K | 1240.9 ± 2.2
318.15 K | 1219.9 ± 2.2
323.15 K | 1198.9 ± 2.2
328.15 K | 1178.2 ± 2.2
333.15 K | 1157.7 ± 2.2
338.15 K | 1137.2 ± 2.1
343.15 K | 1117 ± 2.2

CC(C)CC(C)(C)C [2,2,4-trimethylpentane]
Settings | mass density [kg/m3] | speed of sound [m/s]
278.15 K | 704.1 ± 0.45 | 1168.4 ± 2.1
283.15 K | 700.05 ± 0.45 | 1146.8 ± 2.1
288.15 K | 695.98 ± 0.44 | 1125.4 ± 2.1
293.15 K | 691.89 ± 0.44 | 1104.3 ± 2.1
298.15 K | 687.77 ± 0.43 | 1083.1 ± 2.1
303.15 K | 683.64 ± 0.43 | 1062.4 ± 2.1
308.15 K | 679.48 ± 0.42 | 1041.6 ± 2.1
313.15 K | 675.28 ± 0.42 | 1020.9 ± 2.1
318.15 K | 671.07 ± 0.41 | 1000.5 ± 2.1
323.15 K | 666.81 ± 0.41 | 980 ± 2.1
328.15 K | 662.52 ± 0.41 | 959.7 ± 2.1
333.15 K | 658.19 ± 0.4 | 939.7 ± 2.1
338.15 K | 653.81 ± 0.4 | 919.7 ± 2.1
343.15 K | 649.4 ± 0.39 | 900 ± 2.1
